{"source": "paper PMC6364417", "about": "“Kinase inhibitor library screening identifies synergistic drug combinations effective in sensitive and resistant melanoma cells” (Journal of Experimental & Clinical Cancer Research : CR, 2019)", "test_in_all_cases": "Kinase inhibitor library screening, PrestoBlue cell viability, 1 or 10 μM, 72 h", "key": {"A375 cells (parental)": {"test_system": "A375 cells (parental)", "details": "for cell viability (kinase inhibitor library screening): in %", "protocol": "(§1) After 72 h of treatment, cell viability was assessed using the PrestoBlue Cell Viability Reagent (ThermoFisher Scientific). Measurements were performed with the CLARIOstar Monochromator microplate reader (BMG Labtech).\n(§2) Kinase inhibitor library screening. […] Each cell line was treated in its sensitive form (parental), and also as 2 resistant derivatives, which were made resistant to either Vemurafenib (XP) or Dabrafenib (GP). Drugs were added at 2 different concentrations, 1 and 10 μM, for 72 h and cell viability was assessed using the PrestoBlue Cell Viability assay. Results are depicted as % viability compared to untreated cells. Each cell line was analyzed at least in duplicate. […] (XLSX 95 kb)"}, "[1]": {"test_system": "A375-XP cells (Vemurafenib-resistant)", "details": "for cell viability (kinase inhibitor library screening): in %", "protocol": "as §1, §2"}, "501Mel cells (parental)": {"test_system": "501Mel cells (parental)", "details": "in %", "protocol": "as §1, §2"}, "IGR37 cells (parental)": {"test_system": "IGR37 cells (parental)", "details": "in %", "protocol": "as §1, §2"}, "[2]": {"test_system": "501Mel-XP cells (Vemurafenib-resistant)", "details": "in %", "protocol": "as §1, §2"}, "[3]": {"test_system": "A375-GP cells (Dabrafenib-resistant)", "details": "for cell viability (kinase inhibitor library screening): in %", "protocol": "as §1, §2"}, "[4]": {"test_system": "501Mel-GP cells (Dabrafenib-resistant)", "details": "501Mel GP, in %", "protocol": "as §1, §2"}, "[5]": {"test_system": "IGR37-XP cells (Vemurafenib-resistant)", "protocol": "as §1, §2"}, "[6]": {"test_system": "IGR37-GP cells (Dabrafenib-resistant)", "details": "for cell viability (kinase inhibitor library screening): IGR37 GP", "protocol": "as §1, §2"}}, "note": "Where two headings read alike, the source gives them in different places.", "data": [{"smiles": "CNC(=O)c1ccc(C)c(-n2c(C)cc(OCc3ccc(F)cc3F)c(Br)c2=O)c1", "note": "[PH-797804]", "values": [{"measurement": "Cell viability in kinase inhibitor library screening, A375 Parental, 10μΜ", "setting": "A375 cells (parental); A375 Parental, 10μΜ, 72 h", "result": 84.4}, {"measurement": "Cell viability in kinase inhibitor library screening, A375 Parental, 1μΜ", "setting": "A375 cells (parental); A375 Parental, 1μΜ, 72 h", "result": 109.2}, {"measurement": "Cell viability in kinase inhibitor library screening, A375 XP, 10μΜ", "setting": "[1]; A375 XP, 10μΜ, 72 h", "result": 95.8}, {"measurement": "Cell viability in kinase inhibitor library screening, 501Mel Parental, 1μΜ", "setting": "501Mel cells (parental); 501Mel Parental, 1μΜ, 72 h", "result": 98.2}, {"measurement": "Cell viability in kinase inhibitor library screening, IGR37 Parental, 1μΜ", "setting": "IGR37 cells (parental); IGR37 Parental, 1μΜ, 72 h", "result": 103.0}, {"measurement": "Cell viability in kinase inhibitor library screening, 501Mel XP, 1μΜ", "setting": "[2]; 501Mel XP, 1μΜ, 72 h", "result": 90.4}, {"measurement": "Cell viability in kinase inhibitor library screening, 501Mel XP, 10μΜ", "setting": "[2]; 501Mel XP, 10μΜ, 72 h", "result": 84.3}, {"measurement": "Cell viability in kinase inhibitor library screening, A375 GP, 1μΜ", "setting": "[3]; A375 GP, 1μΜ, 72 h", "result": 103.3}, {"measurement": "Cell viability in kinase inhibitor library screening, A375 GP, 10μΜ", "setting": "[3]; A375 GP, 10μΜ, 72 h", "result": 87.3}, {"measurement": "Cell viability in kinase inhibitor library screening, 501Mel GP, 1μΜ", "setting": "[4]; 1μΜ, 72 h", "result": 106.6}, {"measurement": "Cell viability in kinase inhibitor library screening, 501Mel GP, 10μΜ", "setting": "[4]; 10μΜ, 72 h", "result": 91.3}, {"measurement": "Cell viability in kinase inhibitor library screening, IGR37 XP, 10μΜ", "setting": "[5]; IGR37 XP, 10μΜ, 72 h", "result": 74.4, "unit": "%"}, {"measurement": "Cell viability in kinase inhibitor library screening, IGR37 XP, 1μΜ", "setting": "[5]; IGR37 XP, 1μΜ, 72 h, in %", "result": 104.2}]}, {"smiles": "NC(=O)c1ccc(-c2nc(-c3ccc4c(c3)OCO4)c(-c3ccccn3)[nH]2)cc1", "note": "[SB 431542]", "values": [{"measurement": "cell viability (kinase inhibitor library screening)", "setting": "A375 cells (parental); A375 Parental, 1μΜ", "result": 106.2}, {"measurement": "cell viability (kinase inhibitor library screening)", "setting": "[1]; A375 XP, 1μΜ", "result": 109.0}, {"measurement": "cell viability (kinase inhibitor library screening)", "setting": "[1]; A375 XP, 10μΜ", "result": 106.6}, {"measurement": "cell viability (kinase inhibitor library screening)", "setting": "501Mel cells (parental); 501Mel Parental, 1μΜ", "result": 98.3}, {"measurement": "cell viability (kinase inhibitor library screening)", "setting": "IGR37 cells (parental); IGR37 Parental, 10μΜ", "result": 97.8}, {"measurement": "cell viability (kinase inhibitor library screening)", "setting": "[2]; 501Mel XP, 1μΜ", "result": 93.8}, {"measurement": "cell viability (kinase inhibitor library screening)", "setting": "[2]; 501Mel XP, 10μΜ", "result": 79.9}, {"measurement": "cell viability (kinase inhibitor library screening)", "setting": "[3]; A375 GP, 1μΜ", "result": 100.0}, {"measurement": "cell viability (kinase inhibitor library screening)", "setting": "[3]; A375 GP, 10μΜ", "result": 98.5}, {"measurement": "cell viability (kinase inhibitor library screening)", "setting": "[4]; 1μΜ", "result": 102.6}, {"measurement": "cell viability (kinase inhibitor library screening)", "setting": "[4]; 10μΜ", "result": 85.7}, {"measurement": "cell viability (kinase inhibitor library screening)", "setting": "[6]; 1μΜ, in %", "result": 100.4}, {"measurement": "cell viability (kinase inhibitor library screening)", "setting": "[6]; 10μΜ, in %", "result": 87.9}]}, {"smiles": "COc1cc2nccc(Oc3ccc(NC(=O)Nc4cc(C)on4)c(Cl)c3)c2cc1OC", "note": "[Tivozanib (AV-951)]", "values": [{"measurement": "cell viability (kinase inhibitor library screening)", "setting": "A375 cells (parental); A375 Parental, 1μΜ", "result": 104.6}, {"measurement": "cell viability (kinase inhibitor library screening)", "setting": "A375 cells (parental); A375 Parental, 10μΜ", "result": 60.4}, {"measurement": "cell viability (kinase inhibitor library screening)", "setting": "[1]; A375 XP, 1μΜ", "result": 105.9}, {"measurement": "cell viability (kinase inhibitor library screening)", "setting": "[1]; A375 XP, 10μΜ", "result": 77.7}, {"measurement": "cell viability (kinase inhibitor library screening)", "setting": "501Mel cells (parental); 501Mel Parental, 10μΜ", "result": 74.1}, {"measurement": "cell viability (kinase inhibitor library screening)", "setting": "IGR37 cells (parental); IGR37 Parental, 1μΜ", "result": 97.2}, {"measurement": "cell viability (kinase inhibitor library screening)", "setting": "IGR37 cells (parental); IGR37 Parental, 10μΜ", "result": 83.4}, {"measurement": "cell viability (kinase inhibitor library screening)", "setting": "[2]; 501Mel XP, 1μΜ", "result": 97.3}, {"measurement": "cell viability (kinase inhibitor library screening)", "setting": "[2]; 501Mel XP, 10μΜ", "result": 64.2}, {"measurement": "cell viability (kinase inhibitor library screening)", "setting": "[3]; A375 GP, 1μΜ", "result": 99.1}, {"measurement": "cell viability (kinase inhibitor library screening)", "setting": "[3]; A375 GP, 10μΜ", "result": 54.4}, {"measurement": "cell viability (kinase inhibitor library screening)", "setting": "[4]; 1μΜ", "result": 103.1}, {"measurement": "cell viability (kinase inhibitor library screening)", "setting": "[4]; 10μΜ", "result": 58.3}, {"measurement": "cell viability (kinase inhibitor library screening)", "setting": "[5]; IGR37 XP, 10μΜ, in %", "result": 55.2}]}, {"smiles": "C[S+]([O-])c1ccc(-c2nc(-c3ccncc3)c(-c3ccc(F)cc3)[nH]2)cc1", "note": "(stereo not shown) [SB 203580]", "values": [{"measurement": "Cell viability in kinase inhibitor library screening, A375 Parental, 1μΜ", "setting": "A375 cells (parental)", "result": 112.0}, {"measurement": "Cell viability in kinase inhibitor library screening, A375 Parental, 10μΜ", "setting": "A375 cells (parental)", "result": 83.0}, {"measurement": "Cell viability in kinase inhibitor library screening, A375 XP, 1μΜ", "setting": "[1]", "result": 111.6}, {"measurement": "Cell viability in kinase inhibitor library screening, A375 XP, 10μΜ", "setting": "[1]", "result": 103.1}, {"measurement": "Cell viability in kinase inhibitor library screening, 501Mel Parental, 1μΜ", "setting": "501Mel cells (parental)", "result": 108.7}, {"measurement": "Cell viability in kinase inhibitor library screening, 501Mel Parental, 10μΜ", "setting": "501Mel cells (parental)", "result": 95.5}, {"measurement": "Cell viability in kinase inhibitor library screening, IGR37 Parental, 1μΜ", "setting": "IGR37 cells (parental)", "result": 116.2}, {"measurement": "Cell viability in kinase inhibitor library screening, IGR37 Parental, 10μΜ", "setting": "IGR37 cells (parental)", "result": 92.9}, {"measurement": "Cell viability in kinase inhibitor library screening, 501Mel XP, 10μΜ", "setting": "[2]", "result": 92.5}, {"measurement": "Cell viability in kinase inhibitor library screening, A375 GP, 1μΜ", "setting": "[3]", "result": 93.4}, {"measurement": "Cell viability in kinase inhibitor library screening, A375 GP, 10μΜ", "setting": "[3]", "result": 98.4}, {"measurement": "Cell viability in kinase inhibitor library screening, IGR37 GP, 10μΜ", "setting": "[6]", "result": 86.6, "unit": "%"}, {"measurement": "Cell viability in kinase inhibitor library screening, IGR37 GP, 1μΜ", "setting": "[6]; in %", "result": 105.2}, {"measurement": "Cell viability in kinase inhibitor library screening, IGR37 XP, 10μΜ", "setting": "[5]", "result": 62.9, "unit": "%"}, {"measurement": "Cell viability in kinase inhibitor library screening, IGR37 XP, 1μΜ", "setting": "[5]; in %", "result": 103.3}]}]}
